Assay results: patent US20230173071A1, “TREATMENT OF MYOPIA AND OTHER OCULAR CONDITIONS USING SINGLET OXYGEN GENERATED FROM DYES ACTIVATED BY NEAR-INFRARED LIGHT” (California Institute of Technology, priority 2018, published 2023)

Key:
porcine sclera = test: Young's Modulus measurement (Instron) of irradiated porcine sclera strips; set-up: species or system porcine (pig); conditions: porcine sclera strips soaked in 2 mg/mL ICG, 0.01% BAC in D2O; 810 nm LED 200 mW, total 10 minutes
Method: (§1) All Young's Modulus values were determined using an Instron equipped with screw side action tensile grips and a load cell rated for max 100 N. Rates of pulling were between 3 mm/minute and 5 mm/minute. The software calculated the Young's Modulus from the force vs. distance/time.
The treatment was also tested on a more biologically relevant sample—unscalded porcine (pig) eyes (Sierra For Medical Science). Eyes were cut around the globe to make a 1 cm×5-6 cm strip of pig sclera for testing. Measurements were accumulated over several batches of eyes. Storage solutions before treatment (irradiation) contained 20% Dextran (MW ˜40-45k) in D2O while post-treatment storage was Dulbecco's buffer with 20% Dextran (MW ˜40-45k). An ICG/BAC/D2O soak solution was made to the concentration of 2 mg/mL ICG and 0.01% BAC. Strips for treatment were soaked in the solution for 0.5-2 hours. Irradiation was carried out similarly to the bovine gelatin strips—810 nm LED, 200 mW, and a 1 cm×1 cm irradiation zone. To ensure sufficient irradiation without sample dehydration, irradiation duration was kept at 5 minutes but performed twice—i.e. the sample was moved down 1 cm every 5 minutes and then the process was repeated—in order to give a total of 10 minutes of irradiation. […] The Young's Modulus values were calculated by the software and compiled to compare untreated vs. treated strips. […]

bovine gelatin = test: Young's Modulus measurement (Instron) of irradiated bovine gelatin strips; conditions: bovine gelatin 25% wt, ICG 1 mg/mL, TEOA 90 mM; 810 nm 200 mW LED; 3 and 5 minute irradiations compiled
Method: as §1
Bovine gelatin sheets were made by heating the gelatin in Dulbecco's buffer to 75° C. for 30 minutes in order to dissolve the dried gelatin and make a viscous solution. Neat TEOA and a concentrated stock solution of ICG in deionized water were added to make the final concentrations: bovine gelatin=25% wt, TEOA=90 mM, and ICG=1 mg/mL. This solution was pipetted hot into a plexiglass mold with a Teflon spacer to form a sheet of the following dimensions: 14 cm×6 cm×1 mm. It was stored overnight in a 4° C. refrigerator to solidify. Twelve 1 cm×6 cm strips were cut from the solidified gel for triplicate analysis of 4 conditions: no irradiation, 3 minute, 5 minute, and 10 minute irradiations. An 810 nm 200 mW LED (Thor Labs) was used for treatment of the gel strip. The LED with a collimator produced a 1 cm×1 cm irradiation area, which was used to treat 1 cm portions of the gelatin strip at a time. For example, an initial irradiation was applied for 3 minutes on 1 cm of the gel, then the gel was shifted 1 cm to a new, untreated portion. […]

[1] = Singlet oxygen generation by DPBF decay (UV-Vis), 810 nm LED; assay type: physicochemical
Description: To evaluate the efficiency of singlet oxygen generation by ICG and an analog (IR-820) in vitro, the singlet oxygen generation was monitored. 1,3-diphenylisobenzofuran (DPBF), a compound that decays in the presence of singlet oxygen, and singlet oxygen sensor green (SOSG), a dye that increases fluorescence in the presence of singlet oxygen, were used as markers to indicate singlet oxygen generation by ICG and IR-820. […] For SOSG analysis, the fluorescence turn-on in H2O and D2O was compared to that observed when riboflavin—an FDA approved dye used in conjunction with UV light to treat keratoconus (corneal expansion)—was usedIn all cases, an increase in fluorescence emission at 525 nm was observed (using a 488nm excitation).

## CC1(C)C(/C=C/C=C/C=C/C=C2\N(CCCCS(=O)(=O)O)c3ccc4ccccc4c3C2(C)C)=[N+](CCCCS(=O)(=O)[O-])c2ccc3ccccc3c21 [ICG, indocyanine green]
Porcine sclera
  increase of the Young's Modulus, irradiated (treated) vs non-irradiated (untreated) sample: 21%
Bovine gelatin
  increase of the Young's Modulus, irradiated vs non-irradiated sample: 26%
[1]; 810 nm, 375 mW LED, in water
  ICG and DPBF signal (UV-Vis) upon irradiation: decrease
[1]; in H2O or D2O
  singlet oxygen generation (DPBF analysis): singlet oxygen generation was observed
